Source: US20260027131A1, “PRODRUGS, PRODRUG COMPOSITIONS AND RELATED METHODS” (Praesidia Biotherapeutics Inc., priority 2022, published 2026)
Where two headings read alike, the source gives them in different places.

Columns and labels:
[1] = Rat plasma stability; assay type: in vitro ADME; conditions: for Rat plasma stability: Table 6, unit not given; for half-life at 5 μM: rat, plasma
Method: Rat and human plasma were obtained from qualified vendors. […] The assay was performed in duplicate.

[2] = Permeability study using Caco-2 cell monolayers; conditions: human, Caco-2, pH 7.4
Method: (§2) CaCO-2 cells were cultured, and a monolayer was developed in-house in 96 well-plates over 18 days using standard protocol. The monolayer was tested for the integrity of the cell monolayer before using.
(§3) Test compounds were added to the transwell insert (apical compartment) to determine the rate of drug transport in the apical to basolateral direction. To determine the rate of drug transport in the basolateral to apical direction, the test compound was added to the receiver plate wells (basolateral compartment). Appropriate amount of HBSS (10 mM HEPES, pH 7.4) was added in both compartments for a final volume of 200 μL. The plates were incubated at 37° C. with shaking at 150 rpm on a rotary shaker for 2 hours. At the end of the transport period, 50 μL from the apical and basolateral wells were collected and 4 volume of cold acetonitrile containing internal standards (IS: 100 nM alprazolam, 200 nM labetalol, and 2 μM ketoprofen) was added to each sample to terminate the reaction. The samples were vortexed and centrifuged at 3,800 g for 20 minutes. An aliquot of 150 μL of the supernatant was used for LC/MS/MS analysis. All samples were analyzed in duplicates. Samples were analyzed through LC/MS/MS for estimating the permeability and efflux of the compounds across Caco-2 cell monolayers.

[3] = system: Caco-2 cell monolayers; test: Permeability study using Caco-2 cell monolayers; conditions: 2 hours; for Permeability A-B: apical to basolateral; for Permeability B-A: basolateral to apical
Method: as §2, §3

[4] = Metabolic stability in rat liver microsomes; assay type: in vitro ADME; conditions: rat liver microsomes, 1 μM, NADPH; Table 6, unit not given
Method: Rat liver microsomes were obtained from qualified vendors and metabolic stability of the test compound was determined at 1 μM. The compound was incubated at 37° C. with 0.5 mg microsome/mL in the buffer in the presence of 1 mM NADPH. Aliquots of 50 μL were taken from the reaction solution at 0, 15, 30, 45 and 60 minutes. […] All samples were analyzed in duplicates.

[5] = biological target: T1, Glucocorticoid receptor (GR) (Homo sapiens, UniProt P04150); test: TR-FRET GR competitive binding assay; conditions: 0.1 μM
T1 sequence (P04150 1-777): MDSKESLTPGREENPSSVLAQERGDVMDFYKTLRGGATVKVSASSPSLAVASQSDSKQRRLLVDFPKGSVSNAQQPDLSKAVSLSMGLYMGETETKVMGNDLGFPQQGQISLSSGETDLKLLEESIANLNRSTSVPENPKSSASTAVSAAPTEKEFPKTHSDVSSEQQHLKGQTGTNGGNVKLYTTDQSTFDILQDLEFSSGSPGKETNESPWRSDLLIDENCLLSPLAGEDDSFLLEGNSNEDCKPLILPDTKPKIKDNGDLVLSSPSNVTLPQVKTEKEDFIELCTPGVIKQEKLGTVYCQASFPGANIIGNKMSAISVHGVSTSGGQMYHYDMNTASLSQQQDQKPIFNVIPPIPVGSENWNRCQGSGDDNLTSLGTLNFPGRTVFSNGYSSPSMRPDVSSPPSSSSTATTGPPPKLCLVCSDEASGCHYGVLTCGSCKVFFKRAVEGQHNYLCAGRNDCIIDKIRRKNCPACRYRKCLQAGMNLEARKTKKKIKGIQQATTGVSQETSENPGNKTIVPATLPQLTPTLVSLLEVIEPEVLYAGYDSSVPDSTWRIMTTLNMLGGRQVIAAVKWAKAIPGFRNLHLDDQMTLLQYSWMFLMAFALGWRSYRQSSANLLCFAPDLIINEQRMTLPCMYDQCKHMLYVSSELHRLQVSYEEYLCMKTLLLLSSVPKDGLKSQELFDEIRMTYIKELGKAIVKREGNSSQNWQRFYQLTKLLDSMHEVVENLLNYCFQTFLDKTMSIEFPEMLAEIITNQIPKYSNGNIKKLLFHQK
Method: Glucocorticoid receptor (GR) binding of prodrugs was determined using TR-FRET GR competitive binding assay. Three-point (0.1, 1 and 10 μM) binding was evaluated for each prodrug.

[6] = Human plasma stability
Method: (§4) Rat and human plasma were obtained from qualified vendors. 5 μL of 500 μM of the test article solution was added to 495 μL of pre-incubated human or rat plasma to reach a final concentration of 5 μM. The final concentration of organic solvents was not more than 0.5%. The assay was performed in duplicate. The reaction samples were incubated in a 37° C. water bath with shaking at approximately 60 rpm. 50 μL of the reaction samples were collected at 0, 30, 60, 120 and 180 minutes. The reaction was stopped by adding 300 μL of room temperature quench solution (acetonitrile containing internal standards (IS, 200 nM labetalol, 100 nM alprazolam and 2 μM ketoprofen)). The samples were vortexed for 5 minutes followed by centrifugation of the samples at 3,220 g for 30 minutes at room temperature to precipitate the protein. 100 μL of the supernatant was transferred to a new plate and diluted with 100 μL or 200 μL water according to the LC/MS signal response and peak shape. The samples were mixed well and analyzed using LC/MS/MS. The remaining percentage of parent drug versus reaction time was used to calculate the t1/2 value.

[7] = Chemical stability at pH 4.5 and pH 7.4 in PBS; assay type: physicochemical; conditions: for Chemical Stability, pH 4.5: PBS pH 4.5, 37° C.; for Chemical Stability, pH 4.5 / Chemical Stability, pH 7.4: 5 μM, up to 240 min; for Chemical Stability, pH 7.4: PBS pH 7.4, 37° C.; for Chemical stability: Table 6, pH not stated
Method: The assay was performed in duplicate. […] Samples were incubated at 37° C. at 600 rpm.

[8] = Pharmacokinetic studies in rats: plasma and lung; conditions: rat, single i.v., 2 mg/kg dexamethasone equivalent
Method: (§1) Six to eight weeks old Sprague-Dawley rats were procured from a qualified provider. Test compounds were introduced in rats by a single intravenous administration. […] Blood samples (0.1, 0.2 or 0.5 mL) were collected with a 1 mL syringe containing anticoagulants K2EDTA. Blood samples were centrifuged to obtain plasma for analysis. […] After collection at each time point, lung samples were frozen at −75° C. Prior to analysis, a portion of lung sample was weighed and homogenized with phosphate buffer saline. […] Data analysis and pharmacokinetic parameters were generated using WinNonlin software.

[9] = in vitro; conditions: human, plasma
Method: as §4

[10] = Sprague-Dawley, rat, in vivo, iv, 2 mg/kg
Method: as §1, with “1 ml” for “1 mL”, “of brain” for “of lung”

Row | Structure (SMILES) | Rat plasma stability [1] | efflux ratio at 2 h [2] | Permeability A-B [3] | Permeability B-A [3] | RLM [4] | half-life at 5 μM [6] | Chemical Stability, pH 4.5 [7] | Chemical Stability, pH 7.4 [7] | Chemical stability [7] | Conc in Prodrug in lung ([8]; 15 min) | Conc of Prodrug in plasma ([8]; 15 min) | Conc in Prodrug in lung ([8]; 60 min) | Conc of Prodrug in plasma ([8]; 60 min) | Conc in Prodrug in lung ([8]; 360 min) | Conc of Prodrug in plasma ([8]; 360 min) | further results
1 | CC(C)[C@H](N)C(=O)Nc1ccccc1C1(C(=O)OCC(=O)[C@@]2(O)[C@H](C)C[C@H]3[C@@H]4CCC5=CC(=O)C=C[C@]5(C)[C@@]4(F)[C@@H](O)C[C@@]32C)CC1.Cl [Compound 25] | >240 | 170 | A-B = 0.065 × 10^−6, cm/s | B-A = 11 × 10^−6, cm/s | 38 | > 4 h | Yes | Yes | Yes | 3895 ± 368 | 742 ± 96 | 5827 ± 1483 | 367 ± 55 | 1425 ± 509 | 34 ± 10 | half-life at 5 μM ([1]; read-out: Rat Plasma Stability t½): > 4 h; GR Binding Data [5]: 19%
2 | COc1cccc(NC(=O)[C@@H](N)C(C)C)c1C(=O)OCC(=O)[C@@]1(O)[C@H](C)CC2[C@@H]3CCC4=CC(=O)C=C[C@]4(C)[C@@]3(F)[C@@H](O)C[C@@]21C.Cl (stereo partly drawn) [Compound 9] | >240 | 279 | A-B = 0.025 × 10^−6, cm/s | B-A = 7 × 10^−6, cm/s | 24 | > 4 h | Yes | Yes | Yes | 992 ± 422 | 694 ± 83 | 959 ± 283 | 244 ± 13 | 433 ± 212 | 21 ± 1.5 | –
3 | CC(C)C(C(=O)N1CCCC1C(=O)N(C)CC(C)(C)C(C)C(=O)OCC(=O)[C@@]1(O)[C@H](C)C[C@H]2[C@@H]3CCC4=CC(=O)C=C[C@]4(C)[C@@]3(F)[C@@H](O)C[C@@]21C)N(C)C (stereo partly drawn) [Compound 33] | – | – | – | – | – | – | – | – | – | – | – | – | – | – | – | half-life at 5 μM [1]: > 4 h; half-life at 5 μM [9]: > 4 h; Conc of Dex in plasma [10]: 18.8 ± 7.75; Conc of Prodrug in plasma [10]: 6549 ± 1537
